# Reference: patent publication US6737383B1, “Herbicidal oxadiazolidines” (priority 1999, dated 2004)
# Key:
# [1] = test system: velvetleaf; assay: Test B pre/postemergence velvetleaf; format: in vivo, Abutilon theophrasti
# Summary of the method: (§1)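 Test chemicals in a non-phytotoxic solvent mixture with surfactant were sprayed preemergence onto planted seeds and postemergence onto plants 2 to 18 cm tall (1- to 4-leaf stage). After twelve to sixteen days in a greenhouse, injury was visually rated against untreated controls from 0 (no effect) to 10 (complete control).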
# [2] = test system: winter wheat; assay: Test E winter wheat; format: in vivo, Triticum aestivum; settings: Postemergence, 0 to 100 scale
# Protocol: […] All plant species were grown using normal greenhouse practices. Crop and weed species include annual bluegrass (Poa annua), blackgrass (Alopecurus myosuroides), black nightshade (Solanum nigra), chickweed (Stellaria media), common poppy (Papaver rhoeas), deadnettle (Lamium amplexicaule), downy brome (Bromus tectorum), field violet (Viola arvensis), galium (Galium aparine), green foxtail (Setaria viridis), Italian ryegrass (Lolium multiflorum), jointed goatgrass (Aegilops cylindrica), kochia (Kochia scoparia), lambsquarters (Chenopodium album), littleseed canarygrass (Phalaris minor), rape (Brassica napus), redroot pigweed (Amaranthus retroflexus), Russian thistle (Salsola kali), scentless chamomile (Matricaria inodora), spring barley (Hordeum vulgare), sugar beet (Beta vulgaris), sunflower (Helianthus annuus), ivyleaf speedwell (Veronica hederaefolia), spring wheat (Triticum aestivum), winter wheat (Triticum aestivum), wild buckwheat (Polygonum convolvulus), wild mustard (Sinapis arvensis), wild oat (Avena fatua), windgrass (Apera spica-venti) and winter barley (Hordeum vulgare).
# Treated plants and untreated controls were maintained in a greenhouse for approximately 21 to 28 days, after which all treated plants were compared to untreated controls and visually evaluated. […] A dash response (-) means no test result.
# [3] = test system: green foxtail; assay: Test E green foxtail; format: in vivo, Setaria viridis; settings: Preemergence; for Green foxtail plant response rating (0 to 100 scale): Rate 250 g/ha
# [4] = test system: winter wheat; assay: Test E winter wheat; format: in vivo, Triticum aestivum; settings: Preemergence; for Wheat (winter) plant response rating (0 to 100 scale): Rate 250 g/ha; for Plant response rating, Wheat (winter): 0 to 100 scale where 0 is no effect and 100 is complete control
# [5] = test system: Italian ryegrass; assay: Test E Italian ryegrass; format: in vivo, Lolium multiflorum; settings: Preemergence; for I. Ryegrass plant response rating (0 to 100 scale): Rate 250 g/ha; for Plant response rating, I. Ryegrass: 0 to 100 scale where 0 is no effect and 100 is complete control
# [6] = test system: winter barley; assay: Test E winter barley; format: in vivo, Hordeum vulgare; settings: Preemergence; for Barley (winter) plant response rating (0 to 100 scale): Rate 250 g/ha; for Plant response rating, Barley (winter): 0 to 100 scale where 0 is no effect and 100 is complete control
# [7] = test system: soybean; assay: Test B pre/postemergence soybean; format: in vivo, Glycine max
# Summary of the method: as §1
# [8] = test system: wild oat; assay: Test E wild oat; format: in vivo, Avena fatua; settings: Preemergence; for Wild oat plant response rating (0 to 100 scale): Rate 250 g/ha; for Plant response rating, Wild oat: 0 to 100 scale where 0 is no effect and 100 is complete control
# [9] = test system: blackgrass; assay: Test E blackgrass; format: in vivo, Alopecurus myosuroides; settings: Preemergence; for Blackgrass plant response rating (0 to 100 scale): Rate 250 g/ha; for Plant response rating, Blackgrass: 0 to 100 scale where 0 is no effect and 100 is complete control
# [10] = test system: duck salad; assay: Test B flood test duck salad; format: in vivo, Heteranthera limosa
# Summary of the method: (§2)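 Read-out is a visual response score from 0 (no effect) to 10 (complete control), assigned by comparison with untreated controls. Treatment was applied at the 2-leaf stage, and plants stayed in the greenhouse for twelve to sixteen days before scoring.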
# [11] = test system: smallflower flatsedge; assay: Test B flood test smallflower flatsedge; format: in vivo, Cyperus difformis
# Summary of the method: as §2
# [12] = Preemergence, Rate 62 g/ha, scale of 0 to 10 where 0 is no effect and 10 is complete control
# [13] = Preemergence, Rate 125 g/ha, 0 is no effect, 10 is complete control
# [14] = Preemergence, Rate 250 g/ha, scale 0 to 10, 0 is no effect, 10 is complete control
# [15] = Preemergence, Rate 500 g/ha, scale 0 to 10 (0 no effect, 10 complete control)
# [16] = Rate 250 g/ha, Postemergence, scale 0 to 10, 0 is no effect, 10 is complete control
# [17] = Rate 500 g/ha, Postemergence, scale 0 to 10
# [18] = Rate 62 g/ha, headed Pre-emergence (flood test species), scale 0 to 10 (0 no effect, 10 complete control)
# [19] = Rate 125 g/ha, Pre-emergence, flood test species, scale 0 to 10 where 0 is no effect and 10 is complete control
# [20] = Rate 250 g/ha, Pre-emergence, flood-test species, scale 0 to 10, 0 is no effect, 10 is complete control
# [21] = Rate 500 g/ha, Pre-emergence, flood test species, scale 0 to 10 (0 no effect, 10 complete control)
# [22] = Preemergence, Rate 250 g/ha, scale of 0 to 10 where 0 is no effect and 10 is complete control
# [23] = Preemergence, Rate 500 g/ha, scale of 0 to 10 where 0 is no effect and 10 is complete control
# [24] = Rate 62 g/ha, Postemergence, scale 0 to 10, 0 no effect, 10 complete control
# [25] = Rate 125 g/ha, Postemergence, scale of 0 to 10 where 0 is no effect and 10 is complete control
# [26] = Rate 125 g/ha, Preemergence, scale of 0 to 10 where 0 is no effect and 10 is complete control
# [27] = Rate 250 g/ha, Postemergence, scale of 0 to 10 where 0 is no effect and 10 is complete control
# [28] = Postemergence, Rate 62 g/ha, scale 0 to 10, 0 is no effect, 10 is complete control
# [29] = Rate 125 g/ha, Postemergence section (flood test species), scale 0 to 10, 0 no effect, 10 complete control
# [30] = flood test, listed under Postemergence, Rate 250 g/ha, scale 0 to 10, 0 no effect, 10 complete control
# [31] = Postemergence, Rate 250 g/ha, scale 0 to 10, 0 no effect, 10 complete control
# [32] = Preemergence, Rate 62 g/ha, scale 0 to 10, 0 is no effect, 10 is complete control
# [33] = Preemergence, Rate 125 g/ha, scale 0 to 10 (0 no effect, 10 complete control)
# [34] = Preemergence, Rate 500 g/ha, scale 0 (no effect) to 10 (complete control)
# [35] = Rate 125 g/ha, Postemergence, scale 0 to 10, 0 no effect, 10 complete control
# [36] = Rate 62 g/ha, flood test species, Pre-emergence, visual evaluation after twelve to sixteen days
# [37] = Rate 125 g/ha, under heading Pre-emergence, flood test species, visual evaluation after twelve to sixteen days
# [38] = Rate 250 g/ha, Pre-emergence (flood test species), scale 0 to 10, 0 is no effect, 10 is complete control
# [39] = Rate 500 g/ha, Pre-emergence section of Table B, 0 to 10 scale (0 no effect, 10 complete control)
# [40] = Postemergence, Rate 62 g/ha, scale of 0 to 10, 0 is no effect, 10 is complete control
# [41] = Postemergence, Rate 500 g/ha, scale of 0 to 10 where 0 is no effect and 10 is complete control
# [42] = Preemergence, Rate 62 g/ha, scale 0 to 10 (0 no effect, 10 complete control)
# [43] = Preemergence, Rate 125 g/ha, scale 0 to 10, 0 is no effect, 10 is complete control
compound,measurement,setting,value
CC(C)N(C(=O)n1oc(=O)n([C@@H](C)c2ccccc2)c1=O)c1ccccc1 [Compound 173],Velvetleaf plant response rating,[1]; [12],0
same,Velvetleaf plant response rating (0 to 10 scale),[1]; [13],0
same,Velvetleaf plant response rating,[1]; [14],0
same,Velvetleaf plant response rating,[1]; [15],0
same,"Plant response rating, Velvetleaf",[1]; [16],0
same,Velvetleaf plant response rating,[1]; [17],0
same,"Plant response rating, Wheat (winter)","[2]; Rate 1000 g/ha, 0 is no effect and 100 is complete control",60
same,"Plant response rating, Wheat (winter)","[2]; Rate 500 g/ha, 0 is no effect, 100 is complete control",40
same,Green foxtail plant response rating (0 to 100 scale),[3],85
same,"Plant response rating, Green foxtail","[3]; Rate 1000 g/ha, 0 to 100 scale where 0 is no effect and 100 is complete control",100
same,Wheat (winter) plant response rating (0 to 100 scale),[4],20
same,"Plant response rating, Wheat (winter)",[4]; Rate 500 g/ha,30
same,"Plant response rating, Wheat (winter)",[4]; Rate 1000 g/ha,50
same,I. Ryegrass plant response rating (0 to 100 scale),[5],35
same,"Plant response rating, I. Ryegrass",[5]; Rate 500 g/ha,45
same,"Plant response rating, I. Ryegrass",[5]; Rate 1000 g/ha,98
same,Barley (winter) plant response rating (0 to 100 scale),[6],30
same,"Plant response rating, Barley (winter)",[6]; Rate 500 g/ha,40
same,"Plant response rating, Barley (winter)",[6]; Rate 1000 g/ha,40
same,Soybean plant response rating,"[7]; Postemergence, Rate 125 g/ha, scale of 0 to 10 where 0 is no effect and 10 is complete control",2
same,Soybean plant response rating,[7]; [12],0
same,Soybean plant response rating (0 to 10 scale),[7]; [13],0
same,Soybean plant response rating,[7]; [14],0
same,Soybean plant response rating,[7]; [15],3
same,Soybean plant response rating,"[7]; Rate 62 g/ha, Postemergence, scale of 0 to 10 where 0 is no effect and 10 is complete control",2
same,"Plant response rating, Soybean",[7]; [16],2
same,Soybean plant response rating,[7]; [17],4
same,Wild oat plant response rating (0 to 100 scale),[8],50
same,"Plant response rating, Wild oat",[8]; Rate 500 g/ha,45
same,"Plant response rating, Wild oat",[8]; Rate 1000 g/ha,50
same,Blackgrass plant response rating (0 to 100 scale),[9],50
same,"Plant response rating, Blackgrass",[9]; Rate 500 g/ha,70
same,"Plant response rating, Blackgrass",[9]; Rate 1000 g/ha,98
CCC=CCn1c(=O)on(C(=O)N(c2ccc(F)cc2)C(C)C)c1=O [Compound 286],Ducksalad plant response rating,[10]; [18],0
same,Ducksalad plant response rating,[10]; [19],0
same,Ducksalad plant response rating,[10]; [20],0
same,Ducksalad plant response rating,[10]; [21],0
same,Velvetleaf plant response rating,[1]; [12],0
same,Velvetleaf plant response rating,[1]; [22],3
same,"Plant response rating, Velvetleaf",[1]; [23],5
same,Velvetleaf plant response rating,[1]; [24],0
same,Velvetleaf plant response rating,[1]; [25],0
same,Velvetleaf plant response rating,[1]; [26],0
same,"Plant response rating, Velvetleaf",[1]; [27],0
same,Green foxtail plant response rating (0 to 100 scale),[3],55
same,Wheat (winter) plant response rating (0 to 100 scale),[4],40
same,I. Ryegrass plant response rating (0 to 100 scale),[5],40
same,S. Flatsedge plant response rating,[11]; [18],0
same,S. Flatsedge plant response rating,[11]; [19],0
same,S. Flatsedge plant response rating,[11]; [20],0
same,S. Flatsedge plant response rating,[11]; [21],0
same,Barley (winter) plant response rating (0 to 100 scale),[6],5
same,Soybean plant response rating,[7]; [12],0
same,Soybean plant response rating,[7]; [22],0
same,"Plant response rating, Soybean",[7]; [23],0
same,Soybean plant response rating,[7]; [24],1
same,Soybean plant response rating,[7]; [25],1
same,Soybean plant response rating,[7]; [26],0
same,"Plant response rating, Soybean",[7]; [27],2
same,Wild oat plant response rating (0 to 100 scale),[8],10
same,Blackgrass plant response rating (0 to 100 scale),[9],10
Cc1ccccc1-n1c(=O)on(C(=O)N(c2cc(OC(C)C)c(Cl)cc2Cl)C(C)C)c1=O [Compound 42],Ducksalad plant response rating,[10]; [28],0
same,Ducksalad plant response rating,[10]; [29],0
same,Ducksalad plant response rating,"[10]; Rate 500 g/ha, Postemergence section of Table B, 0 to 10 scale (0 no effect, 10 complete control)",0
same,Ducksalad plant response rating,[10]; [30],0
same,Velvetleaf plant response rating,[1]; [28],0
same,Velvetleaf plant response rating,[1]; [31],0
same,"Plant response rating, Velvetleaf",[1]; [32],0
same,"Plant response rating, Velvetleaf",[1]; [33],0
same,"Plant response rating, Velvetleaf",[1]; [22],0
same,Velvetleaf plant response rating,[1]; [34],0
same,Velvetleaf plant response rating,[1]; [35],0
same,S. Flatsedge plant response rating,[11]; [28],0
same,S. Flatsedge plant response rating,[11]; [29],0
same,S. Flatsedge plant response rating,[11]; [30],0
same,Soybean plant response rating,[7]; [28],0
same,Soybean plant response rating,[7]; [31],0
same,"Plant response rating, Soybean",[7]; [32],0
same,"Plant response rating, Soybean",[7]; [33],0
same,"Plant response rating, Soybean",[7]; [22],0
same,Soybean plant response rating,[7]; [34],0
same,Soybean plant response rating,[7]; [35],0
CCCCn1c(=O)on(C(=O)N(c2ccccc2)C(C)C)c1=O [Compound 556],"Plant response rating, Ducksalad (0 to 10 scale, 0 is no effect, 10 is complete control)",[10]; [36],0
same,"Ducksalad plant response rating (0 to 10 scale, 0 is no effect, 10 is complete control)",[10]; [37],0
same,Ducksalad plant response rating,[10]; [38],0
same,Ducksalad plant response rating,[10]; [39],0
same,Velvetleaf plant response rating,[1]; [40],0
same,"Plant response rating, Velvetleaf",[1]; [41],2
same,Velvetleaf plant response rating,[1]; [42],0
same,Velvetleaf plant response rating,[1]; [43],2
same,Velvetleaf plant response rating (0 to 10 scale),"[1]; Preemergence, Rate 250 g/ha",3
same,Velvetleaf plant response rating,[1]; [23],3
same,"Plant response rating, Velvetleaf",[1]; [27],0
same,"Plant response rating, S. Flatsedge (0 to 10 scale, 0 is no effect, 10 is complete control)",[11]; [36],0
same,"S. Flatsedge plant response rating (0 to 10 scale, 0 is no effect, 10 is complete control)",[11]; [37],0
same,S. Flatsedge plant response rating,[11]; [38],0
same,S. Flatsedge plant response rating,[11]; [39],0
same,Soybean plant response rating,[7]; [40],0
same,"Plant response rating, Soybean",[7]; [41],8
same,Soybean plant response rating,[7]; [42],0
same,Soybean plant response rating,[7]; [43],0
same,Soybean plant response rating (0 to 10 scale),"[7]; Preemergence, Rate 250 g/ha",0
same,Soybean plant response rating,[7]; [23],0
same,"Plant response rating, Soybean",[7]; [27],3
